How the values were obtained:
[1] = The drug is tested on Alistipes indistinctus strain: DSM22520 for biotransformation. The drug concentrations were measured before and after a 12-h incubation by liquid-chromatography-coupled mass spectrometry (LC–MS); conditions: 2 µM
[2] = The drug is tested on Bacteroides sp. WH2 strain: WH2 for biotransformation. The drug concentrations were measured before and after a 12-h incubation by liquid-chromatography-coupled mass spectrometry (LC–MS); conditions: bacteroides sp. wh2, 12 h, 2 µM
[3] = The drug is tested on Odoribacter splanchnicus strain: fecal isolate for biotransformation. The drug concentrations were measured before and after a 12-h incubation by liquid-chromatography-coupled mass spectrometry (LC–MS); conditions: 2 µM
[4] = The drug is tested on Eubacterium ventriosum strain: ATCC27560 for biotransformation. The drug concentrations were measured before and after a 12-h incubation by liquid-chromatography-coupled mass spectrometry (LC–MS); assay type: ADME; parameters: dose 2 uM, timepoint 0 vs 12 hours; conditions: 2 µM
[5] = The drug is tested on Ruminococcus lactaris strain: ATCC29176 for biotransformation. The drug concentrations were measured before and after a 12-h incubation by liquid-chromatography-coupled mass spectrometry (LC–MS); conditions: 2 µM
[6] = bacteroides fragilis, 12 h, 2 µM
Description: The drug is tested on Bacteroides fragilis strain: NCTC 9343 for biotransformation. The drug concentrations were measured before and after a 12-h incubation by liquid-chromatography-coupled mass spectrometry (LC–MS)

[7] = akkermansia muciniphila, 12 h, 2 µM
Description: The drug is tested on Akkermansia muciniphila strain: ATCC BAA-835 for biotransformation. The drug concentrations were measured before and after a 12-h incubation by liquid-chromatography-coupled mass spectrometry (LC–MS)

Row | Compound | Bacterial Biotransformation [1] | Bacterial Biotransformation [2] | Bacterial Biotransformation [3] | Bacterial Biotransformation [4] | Bacterial Biotransformation [5] | Bacterial Biotransformation [6] | Bacterial Biotransformation [7]
1 | CCN1CCCC1CNC(=O)c1cc(S(=O)(=O)CC)c(N)cc1OC (configuration not stated) [AMISULPRIDE] | Compound NOT metabolized | Compound NOT metabolized | Compound NOT metabolized | Compound NOT metabolized | Compound NOT metabolized | Compound NOT metabolized | Compound NOT metabolized
2 | CC(C)(C)NCC(O)c1cc(Cl)c(N)c(Cl)c1 (configuration not stated) [CLENBUTEROL] | Compound NOT metabolized | Compound NOT metabolized | Compound NOT metabolized | Compound NOT metabolized | Compound NOT metabolized | Compound NOT metabolized | Compound NOT metabolized
3 | CC[C@@H](CO)NC(=O)[C@@H]1C=C2c3cccc4c3c(cn4C)C[C@H]2N(C)C1.O=C(O)/C=C\C(=O)O [METHYSERGIDE MALEATE] | Compound metabolized | Compound metabolized | Compound metabolized | Compound metabolized | Compound metabolized | Compound metabolized | Compound metabolized
4 | CC(C)(Oc1ccc(CCNC(=O)c2ccc(Cl)cc2)cc1)C(=O)O [BEZAFIBRATE] | Compound NOT metabolized | Compound metabolized | Compound metabolized | Compound metabolized | Compound NOT metabolized | Compound metabolized | Compound metabolized
5 | CC(C)C[C@H]1C(=O)N2CCC[C@H]2[C@]2(O)O[C@](NC(=O)[C@@H]3C=C4c5cccc6[nH]c(Br)c(c56)C[C@H]4N(C)C3)(C(C)C)C(=O)N12.CS(=O)(=O)O [BROMOCRIPTINE MESYLATE] | Compound metabolized | Compound metabolized | Compound metabolized | Compound metabolized | Compound metabolized | Compound metabolized | Compound metabolized
6 | CCN(CC)CCOCCOC(=O)C1(c2ccccc2)CCCC1.O=C(O)CC(O)(CC(=O)O)C(=O)O [CARBETAPENTANE CITRATE] | Compound metabolized | Compound metabolized | Compound metabolized | Compound metabolized | Compound NOT metabolized | Compound metabolized | Compound metabolized
7 | CN1CCc2cccc3c2[C@H]1Cc1ccc(O)c(O)c1-3 [APOMORPHINE] | Compound NOT metabolized | Compound NOT metabolized | Compound NOT metabolized | Compound NOT metabolized | Compound NOT metabolized | Compound NOT metabolized | Compound NOT metabolized
8 | COc1c(C)c2c(c(O)c1C/C=C(\C)CCC(=O)OCCN1CCOCC1)C(=O)OC2 [MYCOPHENOLATE MOFETIL] | Compound metabolized | Compound metabolized | Compound metabolized | Compound metabolized | Compound metabolized | Compound metabolized | Compound metabolized
9 | CC[C@H](C)C(=O)O[C@H]1CCC=C2C=C[C@H](C)[C@H](CC[C@@H]3C[C@@H](O)CC(=O)O3)[C@H]21 [MEVASTATIN] | Compound metabolized | Compound metabolized | Compound metabolized | Compound metabolized | Compound metabolized | Compound metabolized | Compound metabolized
10 | COc1cc2c(c(OC)c1OC)-c1ccc(OC)c(=O)cc1[C@@H](NC(C)=O)CC2 [COLCHICINE] | Compound NOT metabolized |  | Compound metabolized | Compound NOT metabolized | Compound NOT metabolized | Compound metabolized | Compound NOT metabolized
11 | Cc1nc2n(c(=O)c1CCN1CCC(c3noc4cc(F)ccc34)CC1)CCCC2 [RISPERIDONE] | Compound metabolized | Compound NOT metabolized | Compound metabolized | Compound NOT metabolized | Compound metabolized | Compound NOT metabolized | Compound NOT metabolized
12 | CC(Oc1c(Cl)cccc1Cl)C1=NCCN1 (configuration not stated) [LOFEXIDINE] | Compound metabolized | Compound metabolized | Compound metabolized | Compound NOT metabolized | Compound metabolized | Compound metabolized | Compound metabolized
13 | COc1ccc2[nH]c([S+]([O-])Cc3ncc(C)c(OC)c3C)nc2c1 (configuration not stated) [OMEPRAZOLE] | Compound metabolized | Compound metabolized | Compound metabolized | Compound metabolized | Compound metabolized | Compound metabolized | Compound metabolized
14 | CC(=O)O[C@]1(C(C)=O)CC[C@H]2[C@@H]3C=C(Cl)C4=CC(=O)[C@@H]5C[C@@H]5[C@]4(C)[C@H]3CC[C@@]21C [CYPROTERONE ACETATE] | Compound NOT metabolized | Compound NOT metabolized | Compound metabolized | Compound NOT metabolized | Compound NOT metabolized | Compound metabolized | Compound NOT metabolized
15 | N[C@@H](Cc1ccc(N(CCCl)CCCl)cc1)C(=O)O | Compound metabolized | Compound metabolized | Compound metabolized | Compound metabolized | Compound metabolized | Compound metabolized | Compound metabolized
16 | CC[C@H](C)C(=O)O[C@H]1C[C@@H](C)C=C2C=C[C@H](C)[C@H](CC[C@@H]3C[C@@H](O)CC(=O)O3)[C@H]21 [LOVASTATIN] | Compound NOT metabolized | Compound NOT metabolized | Compound metabolized | Compound NOT metabolized | Compound NOT metabolized | Compound metabolized | Compound NOT metabolized
17 | CCOC(=O)[C@H](CCc1ccccc1)N[C@@H](C)C(=O)N1[C@H](C(=O)O)C[C@H]2CCCC[C@@H]21 [TRANDOLAPRIL] | Compound NOT metabolized |  | Compound metabolized | Compound NOT metabolized | Compound NOT metabolized | Compound metabolized | Compound NOT metabolized

— ChEMBL document CHEMBL5303573, “Mapping human microbiome drug metabolism by gut bacteria and their genes” (Nature, 2019)
